Test results taken from patent US20220144812A1, “QUINOLINE DERIVATIVES AND THEIR USE FOR THE TREATMENT OF CANCER” (Epizyme, Inc., priority 2019, published 2022).
Read-outs that look alike come from different tables or passages of the source.

Columns and labels:
[1] = tested on: H3K18Ac in HB-CLS-2 cells; experiment: H3K18AC in-cell western (ICW) assay; type: cell-based; details: H3K18Ac in-cell western; read-out: CREBBP ICW IC50
Method in brief: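 In-cell western: after methanol fixation, blocking, overnight 4° C anti-H3K18Ac staining, then 800CW secondary plus DRAQ5 for DNA content, integrated intensities were scanned at 800 and 700 nm. Before this, compound exposure lasted 2 hr at 37° C in HB-CLS-2 cells plated 16–24 hours earlier. Values expressed as IC50 (μM).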

[2] = tested on: 647V cells; experiment: High throughput proliferation (HTP) assay; type: cell-based; details: high throughput proliferation, read-out: CREBBP HTP IC50
Method in brief: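 Proliferation IC50 (micromolar) derived from a 7-day CellTiter-Glo viable-cell readout in 647V cells exposed, in triplicate, to rising compound concentrations; cells grown in DMEM plus 15% heat-inactivated FBS at 37° C under 5% CO2.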

[3] = target: T1, CREBBP (1084-1701) (Homo sapiens, UniProt Q92793); experiment: Biochemical assay for CREBBP (1084-1701), SAMDI; details: SAMDI, read-out: CREBBP Biochemistry IC50
T1 construct: measured in the following biochemical assay using CREBBP (1084-1701); purchased
T1 sequence (Q92793 1084-1701): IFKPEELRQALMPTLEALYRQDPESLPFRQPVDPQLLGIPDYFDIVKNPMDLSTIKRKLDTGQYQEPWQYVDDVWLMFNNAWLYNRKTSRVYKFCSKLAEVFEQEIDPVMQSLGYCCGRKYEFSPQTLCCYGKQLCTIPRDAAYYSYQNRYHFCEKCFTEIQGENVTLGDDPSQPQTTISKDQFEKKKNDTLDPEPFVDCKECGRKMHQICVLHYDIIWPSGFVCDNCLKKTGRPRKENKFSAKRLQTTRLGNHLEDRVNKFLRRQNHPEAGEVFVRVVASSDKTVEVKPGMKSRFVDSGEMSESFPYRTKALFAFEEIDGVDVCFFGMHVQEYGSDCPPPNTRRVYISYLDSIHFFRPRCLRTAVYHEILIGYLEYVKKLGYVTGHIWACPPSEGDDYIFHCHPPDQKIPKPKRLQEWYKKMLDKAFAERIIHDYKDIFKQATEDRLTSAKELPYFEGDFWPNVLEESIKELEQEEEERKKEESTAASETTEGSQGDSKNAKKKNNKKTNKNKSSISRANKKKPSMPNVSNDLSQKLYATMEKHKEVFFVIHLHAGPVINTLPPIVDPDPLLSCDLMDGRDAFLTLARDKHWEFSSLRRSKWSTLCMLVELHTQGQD
Method in brief: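 Acetyltransferase activity measured by SAMDI mass spectrometry after capture on biochip. Enzyme sat with compound 30 min at RT before acetyl-CoA and biotinylated H3 11-25 (K14R, K23R) peptide were added for 30 min at RT. Formic acid quench, bicarbonate neutralisation; IC50 values reported.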

[4] = target: T2, EP300 (P300(1048-1664)) (Homo sapiens, UniProt Q09472); experiment: Biochemical assay for EP300, SAMDI; details: EP300, SAMDI; read-out: EP300 Biochemistry IC50
T2 construct: P300(1048-1664)
T2 sequence (Q09472 1048-1664): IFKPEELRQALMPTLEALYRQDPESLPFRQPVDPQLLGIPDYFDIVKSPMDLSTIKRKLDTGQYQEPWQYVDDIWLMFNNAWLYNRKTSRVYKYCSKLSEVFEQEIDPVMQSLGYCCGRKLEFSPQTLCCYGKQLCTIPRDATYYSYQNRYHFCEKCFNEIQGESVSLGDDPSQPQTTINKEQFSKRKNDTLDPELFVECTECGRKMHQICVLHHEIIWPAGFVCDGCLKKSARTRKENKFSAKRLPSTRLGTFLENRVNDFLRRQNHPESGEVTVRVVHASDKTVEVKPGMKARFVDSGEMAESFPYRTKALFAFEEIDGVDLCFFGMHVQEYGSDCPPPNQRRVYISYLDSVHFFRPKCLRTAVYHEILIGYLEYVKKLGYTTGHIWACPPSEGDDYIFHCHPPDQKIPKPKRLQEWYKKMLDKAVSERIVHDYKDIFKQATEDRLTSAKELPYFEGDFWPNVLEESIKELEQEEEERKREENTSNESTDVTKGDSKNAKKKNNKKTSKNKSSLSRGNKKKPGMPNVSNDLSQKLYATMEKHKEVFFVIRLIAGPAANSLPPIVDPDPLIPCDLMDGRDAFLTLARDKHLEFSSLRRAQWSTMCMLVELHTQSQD
Description: The following example describes materials and methods relating to a biochemical assay for EP300. IC50 values (micromolar (μM)) are summarized in Table 1, Table 2, and Table 3 under the column labeled: “EP300 Biochemistry IC50 (micromolar).”

| SMILES | IC50 [1] [nM] | IC50 ([2]; Homo sapiens, 647-V) [nM] | IC50 [3] [nM] | IC50 [4] [nM] | IC50 [2] [nM] |
| --- | --- | --- | --- | --- | --- |
| CCn1ncc(CN(C(=O)c2cc(-c3ccc(NCCNC)c(C)n3)nc3ccc(Cl)cc23)C(C)C)c1C [Compound 465] | 4870 | 1930 | 364 | 1480 | – |
| CCn1ncc(CN(C)C(=O)c2nc(-c3cc4c(N)noc4cc3C)nc3ccc(Cl)cc23)c1C [Compound 466] | 202 | 189 | 29.5 | 71.5 | – |
| CCn1ncc(C(=O)N(C)Cc2cc(-c3ccc(NCCNC)c(C)n3)nc3ccc(Cl)cc23)c1C [Compound 467] | 20000 | 5580 | ≥ 50000 | 34200 | – |
| CCn1ncc(CN(C)C(=O)c2nc(-c3cc(C)c4c(=O)[nH][nH]c4c3)nc3ccc(Cl)cc23)c1C [Compound 468] | 213 | 158 | 10.2 | 13.5 | – |
| CCn1ncc(CN(C)C(=O)c2nc(-c3cc(C)nc(NCCN(C)C)c3)nc3ccc(Cl)cc23)c1C [Compound 469] | 56.1 | 29.2 | 19.3 | 10.9 | – |
| CCn1ncc(CN(C)C(=O)c2nc(-c3cc(C)nc(NCCN(C)C)c3)nc3ccc(Cl)cc23)c1C [Compound 470] | 49 | – | 18.8 | 9.9 | 25.4 |
| CCn1ncc(CN(C)C(=O)c2cc(-c3ccc(NCCNC)c(C(F)(F)F)n3)nc3ccc(Cl)cc23)c1C [Compound 471] | 88.6 | 29.2 | 35.8 | 9.5 | – |
| CCn1ncc(CN(C)C(=O)c2cc(-c3ccc(NC4CCNC4)c(C)n3)nc3ccc(Cl)cc23)c1C (stereo not drawn) [Compound 472] | 132 | 48 | 25.4 | 10 | – |
| CCn1ncc(CN(C)C(=O)c2cc(-c3cc(CNC)cc(C)n3)nc3ccc(Cl)cc23)c1C [Compound 473] | 730 | 380 | 322 | 392 | – |
| CCn1ncc(CN(C)C(=O)c2cc(-c3cnc(N)c(C)n3)nc3ccc(Cl)cc23)c1C [Compound 474] | 6530 | 12800 | 22800 | 14500 | – |
| CCn1ncc(CN(C)C(=O)c2nc(-c3cc(C#N)c4nc[nH]c4c3)nc3ccc(COC)cc23)c1C [Compound 475] | 888 | 757 | 920 | 974 | – |
| CCn1ncc(CN(C)C(=O)c2nc(-c3cc(C)cc(N[C@H]4CCNC4)c3)nc3ccc(Cl)cc23)c1C [Compound 476] | 378 | 204 | 28.5 | 6.4 | – |
| CCc1ncc(CN(C)C(=O)c2cc(-c3ccc(OCC(O)CNC)c(C)n3)nc3ccc(COC)cc23)n1C (stereo not drawn) [Compound 477] | 2070 | 1280 | 141 | 47.6 | – |
| CCn1ncc(CN(C)C(=O)c2nc(-c3cc(C)cc(NC4CCNC4)c3)nc3ccc(COC)cc23)c1C (stereo not drawn) [Compound 479] | 70.8 | 43.6 | 18 | 10.1 | – |
| CCc1nc(-c2cc(C(=O)N(C)Cc3cnc(CC)n3C)c3cc(COC)ccc3n2)ccc1NCCNC [Compound 486] | 314 | 89.5 | 59.8 | 30.1 | – |
| CCn1ncc(CN(C)C(=O)c2cc(-c3ccc(NCCNC)c(C)n3)nc3cc(COC)ccc23)c1C [Compound 492] | 2400 | 1670 | 7240 | 5990 | – |
| CCn1ncc(CN(C)C(=O)c2nc(-c3cc(-c4ncc[nH]4)n(C)n3)nc3ccc(Cl)cc23)c1C [Compound 495] | 153 | 140 | 29.3 | 16.3 | – |
| CCn1ncc(CN(C)C(=O)c2cc(-c3ccc(OCC(O)CNC)c(C)n3)nc3ccc(COC)cc23)c1C (stereo not drawn) [Compound 496] | 937 | 689 | 167 | 59.9 | – |

| SMILES | IC50 [1] [nM] | IC50 ([2]; Homo sapiens, 647-V) [nM] | IC50 [3] [nM] | IC50 [4] [nM] | IC50 [2] [nM] |
| --- | --- | --- | --- | --- | --- |
| CCn1ncc(CN(C)C(=O)c2cc(-c3ccc(N4CC(N(C)C)C4)c(C)n3)nc3ccc(Cl)cc23)c1C [Compound 497] | 1630 | 2560 | 846 | 661 | – |
| CCn1ncc(CN(C)C(=O)c2nc(-c3ccc(OCCNC)c(Cl)c3)nc3ccc(C4COC4)cc23)c1C [Compound 498] | 5550 | 2880 | 5080 | 4980 | – |
| CCn1ncc(CN(C)C(=O)c2nc(-c3cc(N)c4cn[nH]c4c3)nc3ccc(COC)cc23)c1C [Compound 499] | 137 | 183 | 14.9 | 3.5 | – |
| CCc1ncc(CN(C)C(=O)c2nc(-c3cc(N)c4cn[nH]c4c3)nc3ccc(COC)cc23)n1C [Compound 500] | 371 | 409 | 25.3 | 28.5 | – |
| CCc1ncc(CN(C)C(=O)c2nc(-c3cc(C)cc(NC4CCNC4)c3)nc3ccc(COC)cc23)n1C (stereo not drawn) [Compound 501] | 3890 | 1150 | 148 | 36.8 | – |
| CCn1ncc(CN(C)C(=O)c2cc(-c3ccc(N(C)C)nn3)nc3ccc(Cl)cc23)c1C [Compound 502] | 2530 | 9010 | 10600 | 4850 | – |
| CCn1ncc(CN(C)C(=O)c2nc(-c3ccc(OCCNC)c(Cl)c3)nc3ccc(CS(C)(=O)=O)cc23)c1C [Compound 503] | 17100 | 7610 | 9850 | 9280 | – |
| CCn1ncc(CN(C)C(=O)c2cc(-c3ccc(NCCNC)nn3)nc3ccc(Cl)cc23)c1C [Compound 504] | 3990 | 3730 | 5780 | 2000 | – |
| CCn1ncc(CN(C)C(=O)c2cc(-c3ccc(N(C)CCN)nn3)nc3ccc(Cl)cc23)c1C [Compound 505] | 2340 | 5960 | 4520 | 3280 | – |
| CCn1ncc(CN(C)C(=O)c2cc(-c3cc4n[nH]cc4cn3)nc3ccc(COC)cc23)c1C [Compound 506] | 185 | 567 | 64.8 | 7.6 | – |
| CCn1ncc(CN(C)C(=O)c2nc(-c3cc4c(N)nn(CCNC)c4cc3C)nc3ccc(Cl)cc23)c1C [Compound 507] | 1600 | 1010 | 556 | 1360 | – |
| CCn1ncc(CN(C)C(=O)c2nc(-c3cc4c(N)[nH]nc4cc3C)nc3ccc(COC)cc23)c1C [Compound 508] | 174 | 212 | 46.3 | 22.4 | – |
| CCc1ncc(CN(C)C(=O)c2cc(-c3cc4n[nH]cc4cn3)nc3ccc(COC)cc23)n1C [Compound 510] | 225 | 465 | 62.9 | 9.3 | – |
| CCc1ncc(CN(C)C(=O)c2cc(-c3cc(C(=O)NC)n(C)n3)nc3ccc(Cl)cc23)n1C [Compound 512] | 104 | 110 | 15.2 | 4 | – |
| CCc1ncc(CN(C)C(=O)c2cc(-c3ccc(NCCNC)c(C)n3)nc3ccc(COC)cc23)n1C [Compound 513] | 470 | 203 | 68.4 | 35 | – |
| CCc1ncc(CN(C)C(=O)c2nc(-c3cc(C)c4[nH]c(=O)[nH]c4c3)nc3ccc(Cl)cc23)n1C [Compound 514] | 470 | 363 | 8.96 | 2.7 | – |
| CCn1ncc(CN(C)C(=O)c2nc(-c3cc4c(N)n(CCNC)nc4cc3C)nc3ccc(Cl)cc23)c1C [Compound 515] | 166 | 78.5 | 70.5 | 49.4 | – |
| CCn1ncc(CN(C)C(=O)c2nc(-c3cc(C)nc(NCCNC)c3)nc3ccc(COC)cc23)c1C [Compound 516] | 194 | 125 | 58.4 | 46.5 | – |
